Measured values published in PMC5905287, “Synthesis and in vitro biochemical evaluation of oxime bond-linked daunorubicin–GnRH-III conjugates developed for targeted drug delivery” (Beilstein Journal of Organic Chemistry, 2018).
Read-outs that look alike come from different tables or passages of the source. Non-standard residues stand in square brackets, D forms with d. Residues, ends and D or L forms follow the SMILES beside them. *: point of attachment. Daunorubicin(13-NOCH2CO) = COc1cccc2c1C(=O)c1c(O)c3c(c(O)c1C2=O)C[C@@](O)(C(C)=NOCC(=O)*)C[C@@H]3O[C@H]1C[C@H](N)[C@H](O)[C@H](C)O1; pGlu = O=C1CC[C@@H](C(=O)O)N1; Butyryl = CCCC(=O)*

Key:
[1] = test system: HT-29 human colon cancer cell line; test: In vitro cytostatic effect, alamarBlue assay, HT-29; assay type: cell-based; settings: HT-29, 10 µM
Description: (§1) Cell lines often function as the first model system of choice to study biological processes or to test the efficiency of drugs or drug conjugates and their cytotoxic effects. Immortal cell lines offer various benefits, for instance they are easy to handle, cost-effective and provide consistent sample and reproducible results. Nevertheless, cell lines also present the disadvantage that after a period of continuous growth, cell characteristics can change and dedifferentiate in culture. The serial passaging can cause genotypic and phenotypic variations and the state of confluency can also affect gene expression pattern in some cell lines. Due to this, the usage of internal standards during the evaluation of new potential candidates might be necessary to ensure comparability with previous results. The cytostatic effect of the novel GnRH-III bioconjugates was determined on HT-29 human colon cancer and MCF-7 human breast cancer cell lines by alamarBlue® assay. For a better comparison, the well-studied bioconjugates GnRH-III–[^8Lys(Dau=Aoa)] (K1) and GnRH-III–[^4Lys(Bu), ^8Lys(Dau=Aoa)] (K2) were used as positive controls and internal standards. The corresponding IC50 values were calculated by using nonlinear regression (sigmoidal dose response) (Figure 3, Table 2). Unfortunately, the D-Trp containing compounds 3 and 6 started to precipitate in both cell culture media at higher concentrations limiting the concentration down to a maximum of 10 µM. This effect could not be prevented by using DMSO instead of ddH2O for the preparation of the stock solutions. Unfortunately, the lower concentration range with a maximum of 10 µM was not sufficient to achieve the dose-response. […] Nevertheless, the replacement of ^6Asp by D-Asp, D-Glu or D-Trp led to a decreased cytostatic effect on the estimated cancer cell lines.
(§2) MCF-7 human breast adenocarcinoma cells were cultured in Dulbecco’s Modified Eagle Medium (DMEM, Lonza, Basel, Switzerland), supplemented with 10% (v/v) fetal bovine serum (FBS, Lonza), L-glutamine (2 mM, Lonza), non-essential amino acids (NEAA, Sigma-Aldrich Kft), sodium pyruvate (1 mM, Lonza) and penicillin-streptomycine (Lonza). […]
(§3) Cells were seeded to 96-well plates (Sarstedt, Nümbrecht, Germany, 5 × 10^3 cells/well) one day prior to the treatment in complete cell medium. […] Fluorescence was detected using Synergy H4 multi-mode microplate reader (BioTek, Winooski, VT, USA), excitation and emission wavelengths were set to 570 and 620 nm, respectively. Cytostasis was measured using 4 parallels, each experiment was repeated twice. Cytostatic effect (and IC50 values) were calculated by using nonlinear regression (sigmoidal dose response) with Origin Pro8 (OriginLab Corp., Northampton, MA, USA.).

[2] = Degradation in rat liver lysosomal homogenate (LC-MS); assay type: in vitro ADME; settings: rat liver lysosomal homogenate, 37 °C, pH 5
Experimental: In order to gain insight into the cellular release of the drug, the degradation of the Dau–GnRH-III derivatives 1–6, K1 and K2 was determined in the presence of rat liver lysosomal homogenate at 37 °C. […] However, the degradation level and the cleavage sites within the GnRH-III sequence differ considerably depending on the incorporated amino acids, whereby the hydrolyses of the C-terminus (H-Gly-NH2 and H-Pro-Gly-NH2) occurred first in all eight GnRH-III derivatives. Due to the high chemical and enzymatic stability of the oxime bond, no free Dau was detected by LC–MS. In accordance with our previous results, the digestion of the two peptides containing L-Asp in position 6 (K1, K2) provided the smallest Dau-containing metabolite (H-Lys(Dau=Aoa)-OH, m/z 729.36 [M + H]^+). This metabolite could already be detected after 1 hour of incubation in case of K2 and after 2 hours in case of K1. […] It might be assumed that D-Trp of GnRH-III–[^4Lys(Bu), ^6D-Tpr, ^8Lys(Dau=Aoa)] (6) is also accepted at the cleavage site, but due to the prior hydrolysis of the ^7Trp-^8Lys(Dau=Aoa)-bond an evidential fragment has not been detected. A reason for these diversities might be the subsite specificities of the lysosomal proteases. For instance, lysosomal cysteine proteases also known as cathepsins show a broad substrate specificity. […] For instance, the analyzed fragments of the ^6L-Asp derivatives gave clear hints for the presence of endopeptidases, while the digestion of the ^6D-Aaa compounds 1–3 gave only fragments which evidence the activity of exomono- and/or dipeptidases. Moreover, the obtained results for the bioconjugates that contain ^4Lys(Bu) (K2, 4–6) instead of serine indicate a proteolytic cleavage by lysosomal endopeptidases, which might be of great importance for the release of the smallest Dau-containing metabolite.
The rat liver lysosomal homogenate was prepared as previously described. The protein concentration was determined by Qubit Protein Assay Kit according to the manufacturer’s protocol (ThermoFisher Scientific, Waltham, MA, USA). The bioconjugates were dissolved in ddH2O to a concentration of 5 µg/µL. The reaction was carried out in 0.2 M NaOAc buffer (pH 5), with an identical concentration of bioconjugate and rat liver lysosomal homogenate (0.25 µg/µL). The reaction mixtures were incubated at 37 °C and aliquots of 15 µL were taken at 5 min, 1 h, 2 h, 4 h, 8 h and 24 h and quenched with 2 µL of acetic acid. The analysis of the samples was performed by LC–MS.

[3] = test system: MCF-7 human breast cancer cell line; test: In vitro cytostatic effect, alamarBlue assay, MCF-7; assay type: cell-based; settings: MCF-7, 10 µM
Description: as §1, §2, §3

GnRH-receptor = test system: GnRH-receptor; set-up: method as in PMID 10647698, PMID 20859992; settings: 1 pM to 1 µM; ref [51]–[52]; cited from earlier work
GnRH-RI [4] = target: T1, GnRH-RI (Homo sapiens, UniProt P30968); set-up: method as in PMID 22967796, PMID 25908176; settings: human pituitary tissue; ref [29],[50]; read-out: IC50 pituitary (reported values); cited from earlier work
T1 sequence (P30968 1-328): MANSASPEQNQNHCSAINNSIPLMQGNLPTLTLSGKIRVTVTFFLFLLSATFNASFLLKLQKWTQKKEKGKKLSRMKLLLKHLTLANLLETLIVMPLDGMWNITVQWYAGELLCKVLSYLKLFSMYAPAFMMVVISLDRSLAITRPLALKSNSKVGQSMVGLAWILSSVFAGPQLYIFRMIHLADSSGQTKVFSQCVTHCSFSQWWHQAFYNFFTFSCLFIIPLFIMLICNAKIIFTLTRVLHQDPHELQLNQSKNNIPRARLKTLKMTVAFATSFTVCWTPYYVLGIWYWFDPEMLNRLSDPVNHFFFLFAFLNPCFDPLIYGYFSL

GnRH-RI [5] = target: T1, GnRH-RI; set-up: human prostate cancer cells were obtained from a patient at the time of initial surgical treatment; from tissue; host or cells: human prostate cancer specimen from a patient (surgery); membrane homogenate; method as in PMID 22967796, PMID 25908176; settings: human prostate cancer tissue; ref [29],[50]; read-out: IC50 prostate cancer (reported values); cited from earlier work
[6] = set-up: method as in PMID 20953647, PMID 21668011; settings: 90% human serum, 37 °C; ref [26],[38]; cited from earlier work
trypsin = test system: trypsin; set-up: method as in PMID 20953647, PMID 21668011; settings: 37 °C; ref [26],[38]; cited from earlier work

COc1cccc2c1C(=O)c1c(O)c3c(c(O)c1C2=O)C[C@@](O)(C(C)=NOCC(=O)NCCCC[C@H](NC(=O)[C@H](Cc1c[nH]c2ccccc12)NC(=O)[C@@H](Cc1c[nH]c2ccccc12)NC(=O)[C@H](Cc1c[nH]cn1)NC(=O)[C@H](CO)NC(=O)[C@H](Cc1c[nH]c2ccccc12)NC(=O)[C@H](Cc1c[nH]cn1)NC(=O)[C@@H]1CCC(=O)N1)C(=O)N1CCC[C@H]1C(=O)NCC(N)=O)C[C@@H]3O[C@H]1C[C@H](N)[C@H](O)[C@H](C)O1 [compound 3, [6D-Trp, 8Lys(Dau=Aoa)]] ([pGlu]HWSH[dW]WK(Daunorubicin(13-NOCH2CO))PG-NH2)
cell viability at the highest concentration [1]: 58%
incubation time after which the smallest Dau-containing metabolite H-Lys(Dau=Aoa)-OH was detected [2]: 4 h
cell viability at the highest concentration [3]: 69%

somatostatin-14
displacement of [125I]-triptorelin (GnRH-receptor): could not inhibit the receptor binding

GnRH-II–[D-Lys^6(Dau=Aoa)] (QHWSHKWYPG; N-terminal pyroglutamate (from Gln1); D-Lys at position 6, with daunorubicin oxime-linked through aminooxyacetyl on its epsilon-amine (Dau=Aoa); C-terminal amide; Decapeptide limits by convention (mat) [earlier reported daunorubicin–GnRH-II conjugate]
IC50 (GnRH-RI [4]): 4.2 nM
IC50 (GnRH-RI [5]): 2.1 nM

bombesin
displacement of [125I]-triptorelin (GnRH-receptor): could not inhibit the receptor binding

CCCC(=O)NCCCC[C@H](NC(=O)[C@H](Cc1c[nH]c2ccccc12)NC(=O)[C@H](Cc1c[nH]cn1)NC(=O)[C@@H]1CCC(=O)N1)C(=O)N[C@@H](Cc1c[nH]cn1)C(=O)N[C@H](Cc1c[nH]c2ccccc12)C(=O)N[C@@H](Cc1c[nH]c2ccccc12)C(=O)N[C@@H](CCCCNC(=O)CON=C(C)[C@]1(O)Cc2c(O)c3c(c(O)c2[C@@H](O[C@H]2C[C@H](N)[C@H](O)[C@H](C)O2)C1)C(=O)c1c(OC)cccc1C3=O)C(=O)N1CCC[C@H]1C(=O)NCC(N)=O [compound 6, GnRH-III–[^4Lys(Bu), ^6D-Tpr, ^8Lys(Dau=Aoa)]] ([pGlu]HWK(Butyryl)H[dW]WK(Daunorubicin(13-NOCH2CO))PG-NH2)
cell viability at the highest concentration [1]: 55%
incubation time after which the smallest Dau-containing metabolite H-Lys(Dau=Aoa)-OH was detected [2]: 2 h
cell viability at the highest concentration [3]: 53%

GnRH-III–[^4Lys(Ac), ^8Lys(Dau=Aoa)]
time stable in human serum [6]: at least 24 h
time stable in trypsin (trypsin): at least 24 h

cetrorelix
displacement of [125I]-triptorelin (GnRH-receptor): displaced [^125I]-triptorelin completely

buserelin
displacement of [125I]-triptorelin (GnRH-receptor): displaced [^125I]-triptorelin completely
